We go through 19 compounds from patent publication US20190218207A1, “3-(Pyridin-3-yl)-Acrylamide and N-(Pyridin-3-yl)-Acrylamide Derivatives and Their Use as PAK or NAMPT Modulators” (Karyopharm Therapeutics Inc., priority 2015, published 2019).

pIC50: −log10 of the molar value. Where two headings read alike, the source gives them in different places.

In test [1] the test system is 3T3 cells. Put plainly: MTT cell proliferation assay, 3T3 cells. Type of test: cell-based, mouse. Conditions: 3T3 fibroblast cells, incubation approximately 64-72 hours. The protocol: (§1) The MTT cell proliferation assay was used to study the cytotoxic properties of the compounds. The assay was performed according to the method described by Roche Molecular Biochemicals, with minor modifications. The assay is based on the cleavage of the tetrazolium salt, MTT, in the presence of an electron-coupling reagent. The water-insoluble formazan salt produced must be solubilized in an additional step. Cells grown in a 96-well tissue culture plate were incubated with the MTT solution for approximately 4 hours. After this incubation period, a water-insoluble formazan dye formed. After solubilization, the formazan dye was quantitated using a scanning multi-well spectrophotometer (ELISA reader). […] The cells were seeded at 5,000-10,000 cells in each well of 96-well plate in 100 μL of fresh culture medium and were allowed to attach overnight. The stock solutions of the compounds were diluted in […] cell culture medium to obtain eight concentrations of each test compound, ranging from 1 nM to 30 μM. […] All optical densities were measured at 490 nm using a Vmax Kinetic Microplate Reader (Molecular Devices). In most cases, the assay was performed in duplicate and the results were presented as a mean percent inhibition to the negative control±SE. The following formula was used to calculate the percent of inhibition: Inhibition (%)=(1-(ODo/OD))×100.
(§2) The compounds were tested against MS751, Z138 and 3T3 cells. The MS751 cell line is derived from a metastasis to lymph node of human cervix from a patient diagnosed with squameous cell carcinoma of the cervix. The Z138 cell line is a mature B-cell acute lymphoblastic leukemia cell line derived from a patient with chronic lumphocytic leukemia. 3T3 cells are standard fibroblast cells; they were originally isolated from Swiss mouse embryo tissue.
For orientation: Formazan colour is commonly taken as a measure of viable cells.

Test [2] concerns MS751 cells. As to the kind of experiment: MTT cell proliferation assay, MS751 cells. Type of test: cell-based, human. Conditions: incubation approximately 64-72 hours, read-out: MTT Assay IC50, MS 751. The protocol:
as §1, §2

Test [3] has as its system Z138 cells. Put plainly: MTT cell proliferation assay, Z138 cells. Type of test: cell-based, human. The protocol: as §1, §2
Setting [4] is: Homo sapiens, Z-138, incubation approximately 64-72 hours.
[5] abbreviates: incubation approximately 64-72 hours, read-out: MTT Assay IC50, Z-138.

A word on the pIC50: it is the negative decadic logarithm of the IC50, by convention in mol/L. Turning to `Nc1ccc(/C=C/C(=O)NCc2cnc(-c3ccc(-c4ccc(C(=O)N5CC(F)C5)cc4)cc3C(F)(F)F)o2)cn1` [Compound A021, (E)-3-(6-aminopyridin-3-yl)-N-((2-(4′-(3-fluoroazetidine-1-carbonyl)-3-(trifluoromethyl)-[1,1′-biphenyl]-4-yl)oxazol-5-yl)methyl)acrylamide], the pIC50 in test [1] (Mus musculus, NIH3T3) was 5.30 to 6.00; in test [2] (Homo sapiens) it was greater than 6.00; in test [3] (setting [4]), greater than 6.00.
For the compound `Nc1ccc(/C=C/C(=O)NCc2ccc(-c3ccc(-c4ccc(C(=O)N5CCC(F)(F)CC5)cc4)cc3-c3ccc(F)cc3)o2)cn1` [Compound A008, (E)-3-(6-aminopyridin-3-yl)-N-((5-(4-(4,4-difluoropiperidine-1-carbonyl)-4″-fluoro-[1,1′:3′,1″-terphenyl]-4′-yl)furan-2-yl)methyl)acrylamide], the negative logarithm of the IC50 (pIC50) in test [1] (Mus musculus, NIH3T3) was 5.00 to 5.30; in test [2] (Homo sapiens), greater than 6.00; in test [3] (setting [4]), greater than 6.00.
For `Cc1c(CNC(=O)/C=C/c2ccc(N)nc2)sc(-c2ccc(-c3ccc(C(=O)N4CC(F)C4)cc3)cc2-c2ccc(F)cc2)c1C` [Compound A013, (E)-3-(6-aminopyridin-3-yl)-N-((5-(4″-fluoro-4-(3-fluoroazetidine-1-carbonyl)-[1,1′:3′,1″-terphenyl]-4′-yl)-3,4-dimethylthiophen-2-yl)methyl)acrylamide], the pIC50 in test [1] (Mus musculus, NIH3T3) was less than 5.00; in test [2] (Homo sapiens) it was 5.30 to 6.00; in test [3] (setting [4]) it was greater than 6.00.
The like results for `Nc1ccc(/C=C/C(=O)NCc2ccc(-c3ccc(-c4ccc(C(=O)N5CCC(F)(F)CC5)cc4)cc3-c3ccc(F)cc3)[nH]2)cn1` [Compound A011, (E)-3-(6-aminopyridin-3-yl)-N-((5-(4-(4,4-difluoropiperidine-1-carbonyl)-4″-fluoro-[1,1′:3′,1″-terphenyl]-4′-yl)-1H-pyrrol-2-yl)methyl)acrylamide] were, in that order, less than 5.00, 5.30 to 6.00 and greater than 6.00.
For the compound `Nc1ccc(/C=C/C(=O)NCc2nnc(-c3ccc(-c4ccc(C(=O)N5CC(F)(F)C5)cc4)cc3C(F)(F)F)o2)cn1` [Compound A018, (E)-3-(6-aminopyridin-3-yl)-N-((5-(4′-(3,3-difluoroazetidine-1-carbonyl)-3-(trifluoromethyl)-[1,1′-biphenyl]-4-yl)-1,3,4-oxadiazol-2-yl)methyl)acrylamide], the pIC50 in test [1] (Mus musculus, NIH3T3) is less than 5.00; in test [2] (Homo sapiens), greater than 6.00; in test [3] (setting [4]) it was greater than 6.00.
`Nc1ccc(/C=C/C(=O)NCc2ncc(-c3ccc(-c4ccc(C(=O)N5CC(F)(F)C5)cc4)cc3C(F)(F)F)o2)cn1` [Compound A024, (E)-3-(6-aminopyridin-3-yl)-N-((5-(4′-(3,3-difluoroazetidine-1-carbonyl)-3-(trifluoromethyl)-[1,1′-biphenyl]-4-yl)oxazol-2-yl)methyl)acrylamide]: the pIC50 in test [1] (Mus musculus, NIH3T3) was 5.30 to 6.00; in test [2] (Homo sapiens), greater than 6.00; in test [3] (setting [4]) it was greater than 6.00.
As to `O=C(/C=C/c1cccnc1)NCc1ccc(-c2ccc(-c3ccc(C(=O)N4CCC(F)(F)CC4)cn3)cc2C(F)(F)F)o1` [Compound A002, (E)-N-((5-(4-(5-(4,4-difluoropiperidine-1-carbonyl)pyridin-2-yl)-2-(trifluoromethyl)phenyl)furan-2-yl)methyl)-3-(pyridin-3-yl)acrylamide], the pIC50 in test [1] (Mus musculus, NIH3T3) is less than 5.00; in test [2] (Homo sapiens) it was greater than 6.00; in test [3] (setting [4]), greater than 6.00.
Take `Nc1ccc(/C=C/C(=O)NCc2cnc(-c3ccc(-c4ccc(C(=O)N5CC(F)(F)C5)cc4F)cc3C(F)(F)F)o2)cn1` [Compound A022, (E)-3-(6-aminopyridin-3-yl)-N-((2-(4′-(3,3-difluoroazetidine-1-carbonyl)-2′-fluoro-3-(trifluoromethyl)-[1,1′-biphenyl]-4-yl)oxazol-5-yl)methyl)acrylamide]: the pIC50 in test [1] (Mus musculus, NIH3T3) is greater than 6.00; in test [2] (Homo sapiens), greater than 6.00; in test [3] (setting [4]) it was greater than 6.00.
For the compound “(E)-(4′-(2′-(2-(6-aminopyridin-3-yl)vinyl)-5,5′-bioxazol-2-yl)-3′-(trifluoromethyl)biphenyl-4-yl)(3,3-difluoroazetidin-1-yl)methanone [Compound A027]”, the pIC50 in test [1], in test [2] and in test [3] (setting [5]) was less than 5.00 throughout.
For `Nc1ccc(/C=C/C(=O)NCc2ccc(-c3ccc(-c4ccc(C(=O)N5CCC(F)(F)CC5)cn4)cc3Cl)o2)cn1` [Compound A006, (E)-3-(6-aminopyridin-3-yl)-N-((5-(2-chloro-4-(5-(4,4-difluoropiperidine-1-carbonyl)pyridin-2-yl)phenyl)furan-2-yl)methyl)acrylamide], the pIC50 was 5.30 to 6.00 in test [1] (Mus musculus, NIH3T3); greater than 6.00 in test [2] (Homo sapiens); greater than 6.00 in test [3] (setting [4]).
In the case of `Nc1ccc(/C=C/C(=O)NCc2nnc(-c3ccc(-c4ccc(C(=O)N5CCC(F)(F)CC5)cc4)cc3-c3ccc(F)cc3)o2)cn1` [Compound A010, (E)-3-(6-aminopyridin-3-yl)-N-((5-(4-(4,4-difluoropiperidine-1-carbonyl)-4″-fluoro-[1,1′:3′,1″-terphenyl]-4′-yl)-1,3,4-oxadiazol-2-yl)methyl)acrylamide], the pIC50 was less than 5.00 in test [1] (Mus musculus, NIH3T3); greater than 6.00 in test [2] (Homo sapiens); greater than 6.00 in test [3] (setting [4]).
As for `Nc1ccc(/C=C/C(=O)NCc2ccc(-c3ccc(-c4ccc(C(=O)N5CCC(F)(F)CC5)cc4F)cc3-c3ccc(F)cc3)o2)cn1` [Compound A007, (E)-3-(6-aminopyridin-3-yl)-N-((5-(4-(4,4-difluoropiperidine-1-carbonyl)-2,4″-difluoro-[1,1′:3′,1″-terphenyl]-4′-yl)furan-2-yl)methyl)acrylamide], the pIC50 in test [1] (Mus musculus, NIH3T3) was 5.00 to 5.30; in test [2] (Homo sapiens), greater than 6.00; in test [3] (setting [4]), greater than 6.00.
Regarding `Nc1ccc(/C=C/C(=O)NCc2ccc(-c3ccc(-c4ccc(C(=O)N5CCC(F)(F)CC5)cn4)cc3C(F)(F)F)s2)cn1` [Compound A005, (E)-3-(6-aminopyridin-3-yl)-N-((5-(4-(5-(4,4-difluoropiperidine-1-carbonyl)pyridin-2-yl)-2-(trifluoromethyl)phenyl)thiophen-2-yl)methyl)acrylamide], the pIC50 is 5.30 to 6.00 in test [1] (Mus musculus, NIH3T3); greater than 6.00 in test [2] (Homo sapiens); greater than 6.00 in test [3] (setting [4]).
Take `Nc1ccc(/C=C/C(=O)NCc2ccc(-c3ccc(-c4ccc(C(=O)N5CC(F)(F)C5)cc4)cc3C(F)(F)F)o2)cn1` [Compound A015, (E)-3-(6-aminopyridin-3-yl)-N-((5-(4′-(3,3-difluoroazetidine-1-carbonyl)-3-(trifluoromethyl)-[1,1′-biphenyl]-4-yl)furan-2-yl)methyl)acrylamide]: the negative logarithm of the IC50 (pIC50) is less than 5.00 in test [1] (Mus musculus, NIH3T3); greater than 6.00 in test [2] (Homo sapiens); greater than 6.00 in test [3] (setting [4]).
Consider `Nc1ccc(/C=C/C(=O)NCc2ccc(-c3ccc(-c4ccc(C(=O)N5CCC(F)(F)CC5)cn4)cc3C(F)(F)F)o2)cn1` [Compound A001, (E)-3-(6-aminopyridin-3-yl)-N-((5-(4-(5-(4,4-difluoropiperidine-1-carbonyl)pyridin-2-yl)-2-(trifluoromethyl)phenyl)furan-2-yl)methyl)acrylamide], for which the pIC50 in test [1] (Mus musculus, NIH3T3) was 5.30 to 6.00; in test [2] (Homo sapiens), greater than 6.00; in test [3] (setting [4]), greater than 6.00.
Regarding `Cc1c(CNC(=O)/C=C/c2ccc(N)nc2)sc(-c2ccc(C3CC3C(=O)N3CC(F)C3)cc2C(F)(F)F)c1C` (stereo not shown) [Compound A017, (E)-3-(6-aminopyridin-3-yl)-N-((5-(4-(2-(3-fluoroazetidine-1-carbonyl)cyclopropyl)-2-(trifluoromethyl)phenyl)-3,4-dimethylthiophen-2-yl)methyl)acrylamide], the pIC50 was less than 5.00 in test [1] (Mus musculus, NIH3T3); 5.30 to 6.00 in test [2] (Homo sapiens); greater than 6.00 in test [3] (setting [4]).
Regarding `Nc1ccc(/C=C/C(=O)NCc2ccc(-c3ccc(-c4ccc(C(=O)N5CCC(F)(F)CC5)cc4)cc3-c3cccc(Cl)c3)o2)cn1` [Compound A009, (E)-3-(6-aminopyridin-3-yl)-N-((5-(3″-chloro-4-(4,4-difluoropiperidine-1-carbonyl)-[1,1′:3′,1″-terphenyl]-4′-yl)furan-2-yl)methyl)acrylamide], the pIC50 in test [1] (Mus musculus, NIH3T3) was 5.30 to 6.00; in test [2] (Homo sapiens) it was greater than 6.00; in test [3] (setting [4]), greater than 6.00.
Take “2-(6-aminopyridin-3-yloxy)-N-((4-(3-(4-fluorophenyl)-4′-(4,4-difluoropiperidine-1-carbonyl)biphenyl-4-yl)furan-2-yl)methyl)acetamide [Compound A028]”: the pIC50 is less than 5.00 in test [1] and greater than 6.00 in test [3] (setting [5]).
For the compound `Nc1ccc(/C=C/C(=O)NCc2ccc(-c3cc4c(C(=O)N5CCC(F)(F)CC5)c[nH]c4cc3C(F)(F)F)o2)cn1` [Compound A029, (E)-3-(6-aminopyridin-3-yl)-N-((5-(3-(4,4-difluoropiperidine-1-carbonyl)-6-(trifluoromethyl)-1H-indol-5-yl)furan-2-yl)methyl)acrylamide], the pIC50 in test [1] (Mus musculus, NIH3T3) is less than 5.00; in test [3] (setting [4]), greater than 6.00.
